≈ marks a conversion by molar mass, not a printed value. Where “and” joins values, the source holds several entries; their conditions need not be identical. Equal entries are not always repeated. Where two headings read alike, the source gives them in different places.
How the values were obtained:
A. fumigatus AF293 = assay: EUCAST broth microdilution growth inhibition (OD 530 nm, 384-well); type: cell-based; conditions: Aspergillus fumigatus, strain AF293 (ITC-susceptible), 48 h
Description: (§1) The antifungal activities of the test compounds against A. fumigatus strains (itraconazole [ITC]-susceptible strains NCPF2010, AF294, and AF293; ITC-resistant strains AF72 and AF91) were calculated from growth curves generated by spectrophotometric analysis and compared to the activities against positive and negative controls.

A. fumigatus AF294 = assay: as above; type: cell-based; conditions: Aspergillus fumigatus, strain AF294 (ITC-susceptible), 48 h
Description: as §1

A. fumigatus AF72 = assay: as above; type: cell-based; conditions: Aspergillus fumigatus, strain AF72 (ITC-resistant), 48 h
Description: as §1

A. fumigatus AF91 = assay: as above; type: cell-based; conditions: Aspergillus fumigatus, strain AF91 (ITC-resistant), 48 h
Description: as §1

A. fumigatus NCPF2010 = assay: as above; type: cell-based; conditions: Aspergillus fumigatus, strain NCPF2010 (ITC-susceptible), 48 h, range tested 0.002 to 1 μg/ml
Description: as §1

[1] = system: A. fumigatus hyphae (NCPF2010); assay: Persistence of action on A. fumigatus hyphae (resazurin microtiter assay); type: cell-based, Aspergillus fumigatus; conditions: Aspergillus fumigatus, NCPF2010
Description: The duration of action of test agents within the hyphae of A. fumigatus has been determined using a resazurin-based microtiter assay ([28]).
The persistence of action of the test agents against A. fumigatus hyphae (NCPF2010) was determined as previously reported ([28]). […] The plates were incubated for exactly 20 min at 35°C in 5% CO2. After the incubation time had elapsed, all wells on the designated washout plate were aspirated and growth medium (100 μl/well) was added across the plate. […] Resazurin (0.04% diluted in growth medium) was added to all wells of both the nonwashout and washout plates (5 μl/well) to give a final concentration of 0.002% resazurin. The plates were incubated at 35°C in 5% CO2 for 16 h. Subsequently, the fluorescence in each well was measured at an excitation λ of 545 nm and an emission λ of 600 nm using a multiscanner (Clariostar; BMG, Buckinghamshire, UK). […] This study was conducted in quadruplicate in three independent experiments.

[2] = system: BEAS2B cells infected with A. fumigatus; assay: Persistence of action in bronchial epithelial cells (galactomannan in supernatant); type: cell-based, Aspergillus fumigatus; conditions: for IC50: Aspergillus fumigatus, BEAS-2B, GM readout
Description: In a second system, the persistence of the action of the same three agents on A. fumigatus-infected bronchial epithelial cells was quantified using galactomannan (GM) production in the culture supernatant as an index of fungal growth. BEAS2B cells were infected with A. fumigatus, and the effects of a 24-h washout period (medium change) prior to infection were examined.
The persistence of action of the test agents was evaluated in immortalized bronchial epithelial cells (BEAS2B cells) as previously reported ([28]). […] The plate was incubated for exactly 1 h at 37°C in 5% CO2. After the incubation time had elapsed, all wells on the washout plate were aspirated and growth medium (100 μl/well) was added across the plate. […] The plate was incubated for exactly 1 h at 37°C in 5% CO2, after which A. fumigatus conidia were added across both plates at a final concentration of 1 × 10^3/well. […] This study was conducted in triplicate in three independent experiments.

[3] = system: Aspergillus flavus (AFL8, NRRC3357); assay: EUCAST MIC; type: cell-based
[4] = system: Aspergillus terreus (AT49, AT7130); assay: EUCAST MIC; type: cell-based
[5] = system: Trichophyton rubrum (ATCC 10218); assay: CLSI MIC; type: cell-based; conditions: ATCC10218, 1 strain
[6] = system: Aureobasidium pullulans (ATCC 348); assay: CLSI MIC; type: cell-based; conditions: ATCC348, 1 strain
[7] = system: Cladosporium argillaceum (ATCC 38013); assay: CLSI MIC; type: cell-based; conditions: Rhizocladosporium argillaceum, ATCC38013, 1 strain
[8] = system: Candida albicans (20240.047, ATCC 10231); assay: CLSI MIC; type: cell-based; conditions: ATCC10231
[9] = system: Chaetomium globosum (ATCC 44699); assay: CLSI MIC; type: cell-based; conditions: ATCC44699, 1 strain
[10] = system: Gibberella zeae(Fusarium graminearum) (ATCC 16106); assay: microbe, parasite or virus in culture; type: cell-based; conditions: ATCC16106
[11] = system: Cryptococcus neoformans (ATCC 24067); assay: CLSI MIC; type: cell-based; conditions: ATCC24067
[12] = system: Lichtheimia corymbifera (ATCC 7909); assay: CLSI MIC; type: cell-based; conditions: ATCC7909, 1 strain
[13] = system: Mucor circinelloides (ATCC 8542); assay: CLSI MIC; type: cell-based; conditions: ATCC8542, 1 strain
[14] = system: Rhizomucor pusillus (ATCC 16458); assay: CLSI MIC; type: cell-based; conditions: ATCC16458, 1 strain
[15] = system: Rhizopus oryzae(ATCC 11145); assay: CLSI MIC; type: cell-based; conditions: Rhizopus arrhizus, ATCC11145, 1 strain
[16] = system: ergosterol production in A. fumigatus (NCPF2010); assay: A. fumigatus cell-based ergosterol assay; conditions: Aspergillus fumigatus, NCPF2010, 24 h, read-out: IC50, inhibition of ergosterol production
Description: CYP51 enzyme-inhibitory activity was also measured in a cell-based assay, as described previously ([28]). In this plate-based ergosterol quantification experiment, oxidation of ergosterol by cholesterol oxidase was determined by observing the conversion of the weakly fluorescent resazurin to the highly fluorescent resorufin and was normalized using crystal violet staining (indicating cell number).
After incubation for 24 h at 35°C, the medium was removed from all wells and replaced with reaction buffer (catalog number A12216; Amplex red cholesterol assay kit; Thermo Fisher) and Amplex red solution. The plates were incubated for 30 min at 37°C with protection from light, after which the fluorescence was quantified using a spectrophotometer. The medium was removed from all wells and replaced with crystal violet solution (1%, vol/vol), and the plates were incubated at room temperature on a shaker for 30 min. The plates were washed three times with phosphate-buffered saline (PBS), and sodium dodecyl sulfate solution (0.1%, vol/vol) was added across the plate to lyse the cells. After incubation at room temperature for 1 h, the absorbance (OD) at 590 nm was measured using a spectrophotometer.

A. fumigatus (NCPF2010) [17] = assay: Fungicidal activity by subculture on agar (CFU-MFC); conditions: Aspergillus fumigatus, NCPF2010, 48 h, read-out: CFU-MFC
Description: (§2) After the MIC for each compound was recorded, fungicidal activity was determined as previously described ([35]). Briefly, medium from each well (100 μl/well) was removed after pipetting up and down five times and subcultured onto 4% Sabouraud dextrose agar plates. The plates were incubated (35°C with ambient air) for 48 h, and the numbers of CFU were counted for each compound concentration. The minimum fungicidal concentration (MFC) was determined as the lowest compound concentration yielding 3 colonies or less.

A. fumigatus (NCPF2010) [18] = assay: Fungicidal activity by XTT colorimetric method (XTT-MFC); conditions: Aspergillus fumigatus
Description: In addition, the fungicidal effect of each compound was determined using 2,3-bis-(2-methoxy-4-nitro-5-sulfophenyl)-2H-tetrazolium-5-carboxanilide salt (XTT)-based quantitative colorimetric analysis (XTT-MFC).
After the removal of medium for culture-based testing of the number of CFU, the contents of all wells were carefully aspirated and warm PBS (200 μl/well) was added. After gentle agitation, the contents of all wells were aspirated and fresh medium was added (200 μl/well). The plates were incubated (35°C with ambient air) for 24 h. […] The plates were incubated (35°C with ambient air) for 2 h, after which the plates were agitated gently for 2 min. The optical density (OD) of each well at 450 nm and 620 nm was measured using a multiscanner (Clariostar; BMG, Buckinghamshire, UK).

A. fumigatus (NCPF2010) [19] = assay: Broth microdilution MIC (96-well) preceding MFC determination; conditions: Aspergillus fumigatus
Description: as §2

## C[C@@H](c1ncncc1F)[C@](O)(Cn1cncn1)c1ccc(F)cc1F [Voriconazole, voriconazole]
A. fumigatus AF293
  IC50: 0.25 µg/mL (≈ 0.716 µM)
  IC90: 0.74 µg/mL (≈ 2.12 µM)
A. fumigatus AF294
  IC50: 0.083 µg/mL (≈ 0.238 µM)
  IC90: 0.27 µg/mL (≈ 0.773 µM)
A. fumigatus AF72
  IC50: 0.025 µg/mL (≈ 0.0716 µM)
  IC90: 0.066 µg/mL (≈ 0.189 µM)
A. fumigatus AF91
  IC50: 0.14 µg/mL (≈ 0.401 µM)
  IC90: 0.28 µg/mL (≈ 0.802 µM)
A. fumigatus NCPF2010
  IC50: 0.15 µg/mL (≈ 0.429 µM)
  IC90: 0.21 µg/mL (≈ 0.601 µM)
[1]; 20 min contact, washout, 16 h incubation, read-out: Hyphae IC50 Washout
  IC50: > 1 µg/mL
[1]; continuous contact 16 h, read-out: Hyphae IC50 No washout
  IC50: 0.011 µg/mL (≈ 0.0315 µM)
[2]; 1 h contact before infection, no washout, read-out: BEAS2B cells IC50 No washout
  IC50: 0.054 µg/mL (≈ 0.155 µM)
[2]; 1 h contact then 24-h washout before infection, read-out: BEAS2B cells IC50 Washout
  IC50: > 1 µg/mL
[2]; BEAS2B cells
  activity after 1-h contact and 24-h washout: ineffective
[3]
  MIC: 0.63 µg/mL (≈ 1.8 µM)
[4]
  MIC: 1 µg/mL (≈ 2.86 µM)
[5]
  MIC: 0.063 µg/mL (≈ 0.18 µM)
[6]
  MIC: > 8 µg/mL
[7]
  MIC: 0.5 µg/mL (≈ 1.43 µM)
[8]
  MIC: 0.14 µg/mL (≈ 0.401 µM)
[9]
  MIC: 1 µg/mL (≈ 2.86 µM)
[10]
  MIC: > 8 µg/mL
[11]
  MIC: 0.016 µg/mL (≈ 0.0458 µM)
[12]
  MIC: > 8 µg/mL
[13]
  MIC: > 8 µg/mL
[14]
  MIC: > 8 µg/mL
[15]
  MIC: > 8 µg/mL
[16]
  IC50: 0.067 µg/mL and 190 nM
A. fumigatus (NCPF2010) [17]
  MFC: 16 µg/mL (≈ 45.8 µM)
A. fumigatus (NCPF2010) [18]; NCPF2010, read-out: XTT-MFC
  MFC: > 32 µg/mL
A. fumigatus (NCPF2010) [18]; NCPF2010, read-out: maximum inhibition of fungicidal activity
  inhibition at 32 µg/mL: 69.2%
A. fumigatus (NCPF2010) [19]
  MIC: 1.67 ± 0.58 µg/mL (≈ 4.78 µM)
